Measured values as given in US12589086B2, “Compositions and methods for the treatment of primary biliary cholangitis” (Genfit, priority 2020, dated 2026).

Test system: patients with PBC
Test: phase II study of elafibranor for the treatment of PBC (serum ALP, 12 weeks)
Format: in vivo, human
Conditions: for treatment effect estimate vs placebo, relative change in serum ALP (supportive analysis): ANCOVA with baseline ALP as covariate; for treatment effect estimate vs placebo, relative change in serum ALP (primary efficacy analysis): non-parametric randomization-based ANCOVA with baseline ALP as covariate, p<0.001; for mean relative change (%) from baseline to Endpoint in serum ALP: placebo 3.2%
Protocol: Elafibranor (2-(2,6-dimethyl-4-{3 [4-(methylsulfanyl)phenyl]-3-oxopropen-1-yl}phenoxy)-2-methylpropanoic acid) is a drug currently tested in a pivotal phase III study for the treatment of PBC. Elafibranor was also evaluated in a phase II study for the treatment of PBC. […] Elafibranor (2-(2,6-dimethyl-4-{3-[4-(methylsulfanyl)phenyl]-3-oxopropen-1-yl}phenoxy)-2-methylpropanoic acid) was supplied as 80 mg white to offwhite round coated tablets with no printed inscription. A placebo tablet (of the same size as the corresponding active tablet) to match elafibranor 80 mg was provided as a white to off-white round coated tablet with no printed inscription. The placebo tablet contained the same excipients as the active formulation as well as lactose monohydrate (which was used in place of the active ingredient). […] The treatment effect estimate was −52.0% (95% Cl [−62.5; −41.5]) for the elafibranor 80 mg treatment group and −43.9% (95% Cl [−55.7; −32.1]) for the elafibranor 120 mg treatment group (FIG. 1). The primary efficacy supportive analysis conducted using an ANCOVA with baseline ALP as a covariate was consistent with the primary efficacy analysis. The treatment effect estimate was −51.4% (95% Cl [−63.3; −39.5]) for the elafibranor 80 mg treatment group and −43.9% (95% Cl [−55.8; −31.9]) for the elafibranor 120 mg treatment group (FIG. 1).

Q: `CSc1ccc(C(=O)C=Cc2cc(C)c(OC(C)(C)C(=O)O)c(C)c2)cc1` [elafibranor, 2-(2,6-dimethyl-4-{3-[4-(methylsulfanyl)phenyl]-3-oxopropen-1-yl}phenoxy)-2-methylpropanoic acid] was tested. Which “absolute change from baseline in serum ALP vs placebo at Endpoint” value (80 mg (p<0.001) and 120 mg treatment groups) did it give?
A: statistically significantly different from placebo

Q: What about the “relative change from baseline in serum ALP vs placebo at Endpoint” value (80 mg and 120 mg treatment groups) of the same molecule?
A: statistically significantly different from placebo

Q: What about the “mean ALP values from baseline through Week 12” value (80 mg and 120 mg treatment groups, FIG. 2) of the same molecule?
A: declining mean ALP values

Q: And the “mean relative changes (%) in ALP values from baseline through Week 12” value (80 mg and 120 mg treatment groups, beginning at Week 2 up through Week 12, FIG. 3)?
A: decrease in ALP values over time

Q: And the “treatment effect estimate vs placebo, relative change in serum ALP (supportive analysis)” value (80 mg, 95% CI [−63.3, −39.5])?
A: −51.4%

Q: And the “treatment effect estimate vs placebo, relative change in serum ALP (primary efficacy analysis)” value (80 mg, 95% CI [−62.5, −41.5])?
A: −52.0%

Q: What about the “treatment effect estimate vs placebo, relative change in serum ALP (supportive analysis)” value (120 mg, 95% CI [−55.8, −31.9]) of the same molecule?
A: −43.9%

Q: What about the “treatment effect estimate vs placebo, relative change in serum ALP (primary efficacy analysis)” value (120 mg, 95% CI [−55.7, −32.1]) of the same molecule?
A: −43.9%

Q: What about the “reduction in plasma ALP levels from baseline compared to placebo” value (PBC patients) of the same molecule?
A: consistent, statistically significant reduction

Q: What about the “mean relative change (%) from baseline to Endpoint in serum ALP” value (elafibranor 80 mg treatment group, PBC patients) of the same molecule?
A: −48.3%

Q: What about the “mean relative change (%) from baseline to Endpoint in serum ALP” value (elafibranor 120 mg treatment group, PBC patients) of the same molecule?
A: −40.6%

Q: And the “safety and tolerability in patients” value (in vivo)?
A: safe and well-tolerated
